We go through eleven molecules from patent US9725439B2, “Quinazoline derivative and preparation method therefor” (CHIA TAI TIANQING PHARMACEUTICAL GROUP CO., LTD., priority 2013, dated 2017).

The subject of series [1] is NCI-H1975, a human non-small cell lung cancer cell. As to the kind of experiment: Proliferation test of anchorage-independent cells. It is filed as cell-based. Conditions: 168 h, NCI-H1975, soft agarose, 7 days, CellTiter-Blue. The protocol:
(§1) 2. Proliferation Test of Anchorage-Independent Cells
(§2) NCI-H1975, a human non-small cell lung cancer cell, and BT474, a human breast cancer cell line, were incubated with RPIM-1640 or DMEM medium supplemented with 10% fetal bovine serum (FBS) in a cell incubator (37° C., 5% CO2). In the test of the compounds, the coated substrate with a concentration of 0.6% was used. The cells were screened with 0.3% low melting point agarose, then plated into 96-well plates with a density of 10,000 cells per well (100 μL). Starting from 10 mM, the compounds were diluted in a gradient of 3 times. For each concentration, 2 μL of the solution was taken and added into 98 μL of medium, then 5.3 μL of the mixture was added into the cell culture medium (where the final concentration of DMSO was 0.1%, v/v). After one week (7 days) of treatment, 20 μL of CellTiter-Blue®reagent (Promega) was added, incubated at 37° C. for 4 h. The fluorescent signal was read on Envison (Perkin Elmer).

Series [2] concerns BT474, a human breast cancer cell line. Kind of series: Proliferation test of anchorage-independent cells. It is filed as cell-based. The following applies: BT-474, 168 h, BT474, soft agarose, 7 days, CellTiter-Blue. The protocol: as §1, §2
Another series concerns the target HER2 (Homo sapiens (Human), UniProt P04626). As to the kind of experiment: In vitro enzymology test (HTRF kinase activity). The class given is biochemical. Conditions: read-out: Enzyme activity (IC50 nM) HER2. An excerpt:
1. The Method for In Vitro Enzymology Test
EGFR, EGFR (T790M, L858R), HER2 kinase were expressed and purified through an insect cell expression system by the Department of Biology, Centaurus Biopharma, Beijing, or purchased from commercially available products.
The platform for testing the kinase activity of EGFR, EGFR (T790M, L858R) and HER2 was established based on the homogeneous time-resolved fluorescence (HTRF) method provided by Cisbio Bioassays, and the activity of the compounds was determined with the platform. […]. And 2.5 μL of the mixture was taken, added into 384-well plates (OptiPlate-384, PerkinElmer), then 2.5 μL of kinase was added, mixed thoroughly by centrifuge. Then 5 μL of ATP and TK Substrate-biotin were added to initiate the reaction. The 384-well plates were incubated at 23° C. in an incubator for a certain period of time, then 5 μL of Eu3^+-Cryptate labeled TK-Antibody and 5 μL of streptavidin-XL665 were added to stop the reaction. After 1 h incubation in an incubator, the fluorescence value was read on Envision (PerkinElmer). The IC50 value of the compound was calculated with the software GraphPad Prism 5.0.

Series [3] in a line: Pharmacokinetics test on rats. The class given is in vivo. Conditions: rat, po; male rats, gavage, single dose 5 mg/kg, plasma. The protocol: Pharmacokinetics Test on Rats
In this study, 6 healthy adult male rats (from Beijing Vital River Laboratory Animal Technology Co., Ltd.) were used. The animals were fast overnight before the experiment. The fasting period was from 12 h prior to the administration, till 4 h after the administration. Drug administration was performed through gavage at a single dose of 5 mg/kg. The compounds to be tested were dissolved in 20% aqueous solution of sulfobutyl-β-cyclodextrin (SBE). Blood samples were collected 0.25, 0.5, 1, 2, 4, 6, 8 and 24 hours after drug administration. During blood sampling, the animals were lightly anesthetized with isoflurane, and approximately 0.5 mL whole blood was collected from retro-orbital venous sinus, placed into tubes that contain heparin as anticoagulant. The samples were centrifuged at 4° C., 4000 rpm for 5 min. The plasma was transferred into centrifuge tubes, and stored at −80° C. till being analyzed. The drug concentration in the plasma was quantitatively analyzed with liquid chromatography-tandem mass spectrometry (LC-MS/MS). From the analysis result of the samples, the pharmacokinetic parameter of the compounds was calculated with WinNonlin (WinNonlin Professional, version […]).

Sequence of HER2 (P04626 23-1255): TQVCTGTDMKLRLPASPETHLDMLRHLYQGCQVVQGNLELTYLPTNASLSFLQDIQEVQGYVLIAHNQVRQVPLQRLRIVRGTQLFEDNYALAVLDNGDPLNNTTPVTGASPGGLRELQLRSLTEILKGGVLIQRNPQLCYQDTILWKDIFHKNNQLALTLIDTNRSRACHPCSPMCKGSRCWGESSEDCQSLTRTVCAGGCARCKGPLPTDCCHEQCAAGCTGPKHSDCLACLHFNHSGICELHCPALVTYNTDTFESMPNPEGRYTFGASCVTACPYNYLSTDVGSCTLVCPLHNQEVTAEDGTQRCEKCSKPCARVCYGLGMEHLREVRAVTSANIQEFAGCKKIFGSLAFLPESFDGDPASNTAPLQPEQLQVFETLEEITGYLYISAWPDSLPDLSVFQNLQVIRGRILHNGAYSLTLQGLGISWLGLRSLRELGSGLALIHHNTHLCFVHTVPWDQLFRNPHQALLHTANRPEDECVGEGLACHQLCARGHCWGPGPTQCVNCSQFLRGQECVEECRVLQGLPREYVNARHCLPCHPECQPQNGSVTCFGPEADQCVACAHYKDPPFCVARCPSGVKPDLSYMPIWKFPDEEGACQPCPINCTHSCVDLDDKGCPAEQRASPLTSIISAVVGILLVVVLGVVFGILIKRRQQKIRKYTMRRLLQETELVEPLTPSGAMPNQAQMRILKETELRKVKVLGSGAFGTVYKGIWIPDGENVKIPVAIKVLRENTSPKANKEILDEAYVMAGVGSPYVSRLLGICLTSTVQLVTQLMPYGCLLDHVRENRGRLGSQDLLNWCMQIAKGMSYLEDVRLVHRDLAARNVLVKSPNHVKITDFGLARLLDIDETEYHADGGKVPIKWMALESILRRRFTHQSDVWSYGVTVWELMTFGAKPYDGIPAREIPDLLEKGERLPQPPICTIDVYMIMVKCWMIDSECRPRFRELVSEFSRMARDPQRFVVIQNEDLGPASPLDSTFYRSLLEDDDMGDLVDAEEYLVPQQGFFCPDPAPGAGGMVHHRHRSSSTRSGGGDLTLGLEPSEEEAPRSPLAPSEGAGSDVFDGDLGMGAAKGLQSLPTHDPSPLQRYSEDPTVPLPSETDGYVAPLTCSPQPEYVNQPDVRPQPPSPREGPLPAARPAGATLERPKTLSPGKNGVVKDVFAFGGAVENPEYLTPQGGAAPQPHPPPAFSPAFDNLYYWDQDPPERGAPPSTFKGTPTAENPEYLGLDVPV

As to `C=CC(=O)N1CCC(Nc2cc3c(Nc4ccc(OCc5ccccn5)c(Cl)c4)ncnc3cc2OC)CC1` [Example 8, 1-(4-(4-(3-chloro-4-(pyridin-2-ylmethoxy)phenylamino)-7-methoxyquinazoline-6-ylamino)piperidin-1-yl)prop-2-ene-1-one], the 50% inhibitory concentration (IC50) was determined as 244 nM in series [1], 62.1 nM in series [2] and 1.2 nM at HER2.
As for `C=CC(=O)N1CC(Nc2cc3c(Nc4cccc(C(C)=O)c4)ncnc3cc2OC)C1` [Example 13, N^4-(3-acetylphenyl)-N^6-(1-acryloylazetidin-3-yl)-7-methoxyquinazoline-4,6-diamine], the concentration for half-maximal inhibition (IC50) on HER2 was 0.5 nM.
As for `C=CC(=O)N1CC(Sc2cc3c(Nc4ccc(F)c(Cl)c4)ncnc3cc2OC)C1` [Example 19, 6-(1-acryloylazetidin-3-yl)-thio-N-(3-chloro-4-fluorophenyl)-7-methoxyquinazoline-4-amine], the values for the concentration for half-maximal inhibition (IC50) in series [1] and in series [2] were 274 nM and 97.1 nM, respectively.
Regarding `C=CC(=O)N1CCC(Nc2cc3c(Nc4ccc(F)c(Cl)c4)ncnc3cc2OCCOC)CC1` [Example 17, N^6-(1-acryloylpiperidin-4-yl)-N^4-(3-chloro-4-fluorophenyl)-7-(2-methoxyethoxy)quinazoline-4,6-diamine], the values for the IC50 (in series [1]; in series [2]; at HER2) were 71.5 nM, 4.7 nM and 0.4 nM, respectively.
For the molecule `C=CC(=O)N1CCC(Nc2cc3c(Nc4ccc(F)c(Cl)c4)ncnc3cc2O[C@H]2CCOC2)CC1` [Example 4, (S)—N^6-(1-acryloylpiperidin-4-yl)-N^4-(3-chloro-4-fluorophenyl)-7-(tetrahydrofuran-3-yloxy)quinazoline-4,6-diamine], the half-inhibitory concentration (IC50) in series [1] worked out at 25.6 nM; in series [2] it was 1.6 nM; on HER2, 0.4 nM.
The corresponding values for `C=CC(=O)N1CCC(Nc2cc3c(Nc4cccc(Br)c4)ncnc3cc2OC)CC1` [Example 15, N^6-(1-acryloylpiperidin-4-yl)-N^4-(3-bromophenyl)-7-methoxyquinazoline-4,6-diamine] are 56 nM, 4.2 nM and 0.2 nM.
In series [1], `C=CC(=O)N1CCC(Nc2cc3c(Nc4ccc(F)c(Cl)c4)ncnc3cc2OC)CC1` [Example 2, N^6-(1-acryloylpiperidin-4-yl)-N^4-(3-chloro-4-fluorophenyl)-7-methoxyquinazoline-4,6-diamine] registered an IC50 of 14 nM. Besides, the concentration for half-maximal inhibition (IC50) in series [2] amounted to 2.1 nM. In series [3], the AUC(0-inf) was found to be 11000 ng·h/mL, the highest level (Cmax) was 1970 ng/mL, the Tmax was 1 h and the half-life is 2.39 h. The IC50 on HER2 turned out to be 0.2 nM.
`C=CC(=O)N1CC(Nc2cc3c(Nc4cccc(Br)c4)ncnc3cc2OC)C1` [Example 14, N^6-(1-acryloylazetidin-3-yl)-N^4-(3-bromophenyl)-7-methoxyquinazoline-4,6-diamine]: the IC50 in series [1] came to 59.3 nM; in series [2], 4.6 nM; on HER2, 0.2 nM.
As for `C=CC(=O)N1CC(Nc2cc3c(Nc4ccc(F)c(Cl)c4)ncnc3cc2O[C@H]2CCOC2)C1` [Example 3, (S)—N^6-(1-acryloylazetidin-3-yl)-N^4-(3-chloro-4-fluorophenyl)-7-(tetrahydrofuran-3-yloxy)quinazoline-4,6-diamine], the 50% inhibitory concentration (IC50) turned out to be 31.4 nM in series [1], 5.1 nM in series [2] and 0.3 nM on HER2.
Regarding `C=CC(=O)N1CC(Nc2cc3c(Nc4ccc(F)c(Cl)c4)ncnc3cc2OCCOC)C1` [Example 16, N^6-(1-acryloylazetidin-3-yl)-N^4-(3-chloro-4-fluorophenyl)-7-(2-methoxyethoxy)quinazoline-4,6-diamine], the IC50 in series [1] turned out to be 32.4 nM; in series [2], 8.7 nM; at HER2 it was 0.3 nM.
Turning to `C=CC(=O)N1CC(Nc2cc3c(Nc4ccc(F)c(Cl)c4)ncnc3cc2OC)C1` [Example 1, N^6-(1-acryloylazetidin-3-yl)-N^4-(3-chloro-4-fluorophenyl)-7-methoxyquinazoline-4,6-diamine], in series [1], the IC50 stood at 21.8 nM. The molecule also returned a 50% inhibitory concentration (IC50) in series [2] of 4.2 nM. Also, in series [3], the AUC(0-inf) was 1350 ng·h/mL, the Cmax is 588 ng/mL, the time of peak concentration (Tmax) is 0.5 h and the half-life was 1.3 h. The IC50 at HER2 came out at 0.5 nM.
